Assay: Filterability evaluation: time period required for filtration through a membrane filter
Assay type: physicochemical
Conditions: for Filtration period of aqueous solution: L-arginine 5g/dl, 30°C, 1.4 ℓ, 2 x 10⁵ Pa, Millipore 0.22 µmGS membrane filter; for filterability: neutral to acidic pH, result in words
Protocol: The dried purified crystals were obtained by the three method described above were filtered under the condition shown below to compare the filterability. The pH was adjusted with 2N aqueous solution of HCl, and the filterability was evaluated by determining the time period required for the filtration.
The dried purified crystals obtained by the method described above were filtered under conditions similar to those in Example 1 to evaluate the filterability.

Row | SMILES | Filtration period of aqueous solution (pH 3) | Filtration period of aqueous solution (pH 5) [s] | Filtration period of aqueous solution (pH 7) [s] | Filtration period of aqueous solution (pH 11) [s] | filterability
1 | N=C(N)NCCC[C@H](N)C(=O)O [Solution of purified crystals by LR-O method] [L-arginine] | 914 s | 920 | 918 | 921 | –
2 | N=C(N)NCCC[C@H](N)C(=O)O [UF method, L-arginine] | Occlusion | 2640 | 1400 | 850 | extremely poor filterability
3 | N=C(N)NCCC[C@H](N)C(=O)O [LR-O method, L-arginine] | 920 s | 880 | 910 | 930 | no deterioration of the filterability
4 | N=C(N)NCCC[C@H](N)C(=O)O [Conventional method, L-arginine] | Occlusion | 8000 | 1510 | 1010 | extremely poor filterability

— patent EP0714884A1, “A method for the production of a basic amino acid” (Ajinomoto Co., Inc., priority 1994, dated 1996)
